The nature of series [1]: % of radioactivity recovered as aliskiren in plasma following intravenous administration of [14C] aliskiren hemifumarate at 10 mg.Kg-1 level in rat. The class given is ADME, organism-based, Albino HAN:WIST. Conditions: in vivo.
Series [2] can be described thus: % SPP100 (0-72h) recovered in faeces following single intravenous dose of [14C] aliskiren hemifumarate at 1 mg.Kg-1 level in marmoset. Conditions: in vivo. The class given is ADME, organism-based, Callithrix jacchus, Feces.
Series [3] has as its target T1, CYP2C19 (Homo sapiens, UniProt P33261). As to the kind of experiment: Inhibitory activity of 20 uM SPP100 on 1174 Pmoles of cDNA-derived CYP2C19 enzyme in microsome prepared from human lymphoblastoid cell line. It counts as ADME, microsomes. On the set-up: conc 20 uM, interact cpd conc 50 uM. Conditions: probe (S)-mephenytoin.
The nature of series [4]: Terminal elimination half-life of SPP100 following single oral dose of SPP100 150 mg capsule studied in healthy human. The settings on record: plasma. The class given is ADME, organism-based.
Series [5] is described as follows: % SPP100 recovered in urine following single intravenous administration of 10 mg.Kg-1 [14C] aliskiren hemifumarate in male rat. The class given is ADME, organism-based, HAN:WIST(SPF). The settings on record: in vivo.
In series [6] the target is T1, CYP2C19. As to the kind of experiment: Inhibition of CYP2C19 in human liver microsomes from 10 healthy donors at 200 uM aliskiren (SPP100). The class given is ADME, Microsome. The arrangement: conc 200 uM. The settings on record: probe S-mephenytoin (4'-hydroxylation). On the technique in general: Liver microsomes are a subcellular fraction often used to study metabolism.

Series [7] can be described thus: Faecal elimination of aliskiren following single oral dose of [14C] aliskiren hemifumarate at 500 mg.Kg-1 level in mouse. The class given is ADME, organism-based, TgRasH2, Feces. The settings on record: in vivo.
Series [8] can be described thus: Mean excretion of radioactivity (72-96h) in urine and faeces following single oral dose of 100 mg.Kg-1 [14C] aliskiren hemifumarate in rat. The settings on record: in vivo. It counts as ADME, organism-based, Albino HAN:WIST, Urine/Feces.
The nature of series [9]: Mean excretion of radioactivity (0-24h) in urine and faeces following single intravenous dose of 10 mg.Kg-1 [14C] aliskiren hemifumarate in mouse. Conditions: in vivo. The class given is ADME, organism-based, TgRasH2, Urine/Feces.
The nature of series [10]: Apparent Vmax value of metabolism of [14C] aliskiren hemifumarate studied in human liver microsome. It counts as ADME. Conditions: microsomes.
Series [11] can be described thus: Excretion (168h) of radioactivity in faeces following intravenous administration of [14C] aliskiren hemifumarate at 10 mg.Kg-1 level in rat. Conditions: in vivo. It counts as ADME, organism-based, Lister-Hooded, Feces.
The nature of series [12]: AUC/dose (0-96h) of total radioactivity following oral administration of [14C] aliskiren hemifumarate at 100 mg.Kg-1 level in rat. The class given is ADME, organism-based, Albino HAN:WIST, Plasma. Conditions: in vivo.
Series [13] in a line: Excretion of radioactivity (24-48h) in faeces following single oral dose of 500 mg.Kg-1 [14C] aliskiren hemifumarate in mouse. The class given is ADME, organism-based, TgRasH2, Feces. The settings on record: in vivo.
A short description of series [14]: Concentration of radioactivity in the liver following repeated oral administration of [14C] aliskiren hemifumarate at 100 mg.Kg-1 level studied at 2h after 10th dose in rat. It counts as ADME, organism-based, Albino HAN:WIST. Conditions: in vivo.
A short description of series [15]: Mean excretion of radioactivity (0-96h) in urine and faeces following single intravenous dose of 10 mg.Kg-1 [14C] aliskiren hemifumarate in rat. The class given is ADME, organism-based, Albino HAN:WIST, Urine/Feces. The settings on record: in vivo.
A short description of series [16]: Excretion (168h) of radioactivity in urine following intravenous administration of [14C] aliskiren hemifumarate at 10 mg.Kg-1 level in rat. It counts as ADME, organism-based, Lister-Hooded. Conditions: in vivo.
A short description of series [17]: Mean excretion of radioactivity (0-72h) in urine and faeces following single oral dose of 500 mg.Kg-1 [14C] aliskiren hemifumarate in mouse. The class given is ADME, organism-based, TgRasH2, Urine/Feces. Conditions: in vivo.
Series [18] in a line: Plasma concentration of [14C] aliskiren hemifumarate in first 24h following single oral dose of [14C] aliskiren hemifumarate at 500 mg.Kg-1 level in mouse. The class given is ADME, organism-based, TgRasH2. Conditions: in vivo.
Series [19] can be described thus: Excretion of radioactivity (0-24h) in faeces following single oral dose of 500 mg.Kg-1 [14C] aliskiren hemifumarate in mouse. Conditions: in vivo. The class given is ADME, organism-based, TgRasH2, Feces.
A short description of series [20]: Concentration of radioactivity in the kidney medulla following repeated oral administration of [14C] aliskiren hemifumarate at 100 mg.Kg-1 level studied at 2h after 10th dose in rat. The settings on record: in vivo. It counts as ADME, organism-based, Albino HAN:WIST, Renal medulla.
The nature of series [21]: Cmax of aliskiren hemifumarate following 4 week oral dietary dosing of aliskiren hemifumarate at 1000 mg.Kg-1 level in male mouse. The class given is ADME, organism-based. Conditions: CB6F1-TGrasH2, mouse, in vivo.
Series [22] can be described thus: Cmax of unlabeled aliskiren hemifumarate following single intravenous dose of aliskiren hemifumarate at 10 mg.Kg-1 level in mouse. It counts as ADME, organism-based. The settings on record: TgRasH2, mouse, plasma.
Series [23] can be described thus: AUC of aliskiren hemifumarate following single dosing of SPP100B oral solution at 40 mg level studied on day 1 in men. The class given is ADME, organism-based. The settings on record: male, human, plasma.
Series [24] in a line: Cmaxspec of aliskiren hemifumarate following 2 week oral dosing of aliskiren hemifumarate at 50 mg.Kg-1 level studied on day 1 in male Callithrix jacchus. It counts as ADME, organism-based, Plasma. Conditions: marmoset, in vivo, 336 h.
The nature of series [25]: Tmax of aliskiren hemifumarate following 2 week oral dosing of aliskiren hemifumarate at 100 mg.Kg-1 level studied on day 14 in female Callithrix jacchus. The class given is ADME, organism-based. The settings on record: marmoset, plasma.
A short description of series [26]: AUCspec of aliskiren hemifumarate following 2 week oral dosing of aliskiren hemifumarate at 100 mg.Kg-1 level studied on day 1 in male Callithrix jacchus. It counts as ADME, organism-based, Plasma. Conditions: marmoset, in vivo, 336 h.
The nature of series [27]: Effect of 2 week oral dosing of aliskiren hemifumarate at 50 mg.Kg-1 level on hematological parameter values in male Callithrix jacchus. It counts as toxicity, organism-based, Plasma. Conditions: marmoset, in vivo, 336 h.
Series [28] in a line: Cmax normalised (0-168h) of unlabeled aliskiren hemifumarate following single intravenous administration of aliskiren hemifumarate at 1 mg.Kg-1 level in marmoset. The class given is ADME, organism-based, Callithrix jacchus, Plasma. The settings on record: in vivo.
The nature of series [29]: AUC (0-24h) of aliskiren hemifumarate following 4 week oral dietary dosing of aliskiren hemifumarate at 500 mg.Kg-1 level in female mouse. The class given is ADME, organism-based. The settings on record: CB6F1-TGrasH2, mouse, plasma.
Series [30] can be described thus: Tmax of aliskiren hemifumarate following single dosing of SPP100B oral solution at 160 mg level studied on day 1 in men. Conditions: male, human, plasma. It counts as ADME, organism-based.
A short description of series [31]: AUC (0-24h) of aliskiren hemifumarate following 4 week oral dietary dosing of aliskiren hemifumarate at 1500 mg.Kg-1 level in male mouse. The settings on record: CB6F1-TGrasH2, mouse, plasma. It counts as ADME, organism-based.
A short description of series [32]: Effect of 2 week oral dosing of aliskiren hemifumarate at 50 mg.Kg-1 level on plasma magnesium level in male Callithrix jacchus. The class given is toxicity, organism-based. Conditions: marmoset, 336 h.
The nature of series [33]: AUC of aliskiren hemifumarate following single dosing of SPP100B oral solution at 160 mg level studied on day 1 in men. It counts as ADME, organism-based. The settings on record: male, human, plasma.
Series [34] in a line: AUCspec of aliskiren hemifumarate following 2 week oral dosing of aliskiren hemifumarate at 50 mg.Kg-1 level studied on day 1 in female Callithrix jacchus. The class given is ADME, organism-based, Plasma. Conditions: marmoset, in vivo, 336 h.
The nature of series [35]: AUC (0-24h) of aliskiren hemifumarate following 4 week oral dietary dosing of aliskiren hemifumarate at 1500 mg.Kg-1 level in female mouse. The settings on record: CB6F1-TGrasH2, mouse, plasma. The class given is ADME, organism-based.
A short description of series [36]: Cmax of aliskiren hemifumarate following 4 week oral dietary dosing of aliskiren hemifumarate at 2000 mg.Kg-1 level in female mouse. The class given is ADME, organism-based. Conditions: CB6F1-TGrasH2, mouse, in vivo.
A short description of series [37]: Cmax/dose (0-96h) of unlabeled aliskiren hemifumarate following intravenous administration of aliskiren hemifumarate at 10 mg.Kg-1 level in rat. It counts as ADME, organism-based, Albino HAN:WIST, Plasma. The settings on record: in vivo.

Experimental findings from ChEMBL document CHEMBL3508693 (2016) are described below.

T1 sequence (P33261 whole entry): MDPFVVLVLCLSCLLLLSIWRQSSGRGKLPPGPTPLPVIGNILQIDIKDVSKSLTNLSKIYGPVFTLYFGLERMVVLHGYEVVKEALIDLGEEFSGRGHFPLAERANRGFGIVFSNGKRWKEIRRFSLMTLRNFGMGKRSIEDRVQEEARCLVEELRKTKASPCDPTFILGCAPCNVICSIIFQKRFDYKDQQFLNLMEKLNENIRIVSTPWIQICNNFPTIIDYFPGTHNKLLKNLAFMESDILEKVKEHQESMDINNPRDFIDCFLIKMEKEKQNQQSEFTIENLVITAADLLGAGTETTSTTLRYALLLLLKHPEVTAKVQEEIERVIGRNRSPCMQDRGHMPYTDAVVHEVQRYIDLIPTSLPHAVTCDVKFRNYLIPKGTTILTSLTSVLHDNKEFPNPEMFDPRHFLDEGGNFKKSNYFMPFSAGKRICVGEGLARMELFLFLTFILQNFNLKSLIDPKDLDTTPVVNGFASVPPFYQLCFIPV

As usually defined, the inhibition is the drop in the measured response relative to a control, in per cent. As a reminder, the half-life is the time in which the quantity being followed falls by half. Low readings indicate fast loss, high ones slow loss. `COCCCOc1cc(C[C@@H](C[C@H](N)[C@@H](O)C[C@H](C(=O)NCC(C)(C)C(N)=O)C(C)C)C(C)C)ccc1OC`: the Compound recovery in series [1] is on record as over 40%; in series [2] it was 36%; in series [5] it was 79.8%. For the same compound, the inhibition at 20 µM against CYP2C19 [3] was -1.5%. Also, the half-life in [4] was 41 h. Besides, at CYP2C19 [6], the inhibition at 200 µM worked out at 42.5%.

Consider `COCCCOc1cc(C[C@@H](C[C@H](N)[C@@H](O)C[C@H](C(=O)NCC([14CH3])([14CH3])C(N)=O)C(C)C)C(C)C)ccc1OC.O=C(O)/C=C/C(=O)O`, for which the Radiolabel recovery entry in series [7] is reported as “OUTCOME = Observed, VALUE = Elimination of aliskiren occurred mainly via the biliary or faecal route”; in series [8], 2.54%; in series [9], 84.68%; in series [11] it was 75%; in series [13], 1.82%; in [14], “OUTCOME = Detected”. Also, the Radiolabel recovery was 94.8% in series [15]; 10.4% in series [16]; 89.8% in series [17]; “OUTCOME = Observed/Most of the radioactivity administered was excreted during first 24h after administration and the main route of excretion was the faecal pathway” in series [19]; “OUTCOME = Detected” in series [20]. Moreover, the Vmax in series [10] is 1807.6 pmol·min/mg. The AUC normalised is recorded as 0.054 (umol.h/L)/(mg/kg) in [12] and 0.81 (umol.h/L)/(mg/kg) in series [12] (iv, 10 mg/kg). Moreover, the Compound recovery in series [18] was found to be 56%.

As usually defined, the Cmax is the highest concentration seen after dosing. By AUC is commonly meant concentration integrated over time. The low end stands for less exposure, the high end for more exposure. One may read the Tmax as the time at which the peak concentration occurs. What is called AUC(0-t) is exposure summed from dosing to a finite time, without extrapolation to infinity. Regarding `COCCCOc1cc(C[C@@H](C[C@H](N)[C@@H](O)C[C@H](C(=O)NCC(C)(C)C(N)=O)C(C)C)C(C)C)ccc1OC.COCCCOc1cc(C[C@@H](C[C@H](N)[C@@H](O)C[C@H](C(=O)NCC(C)(C)C(N)=O)C(C)C)C(C)C)ccc1OC.O=C(O)/C=C/C(=O)O` [ALISKIREN FUMARATE], the highest concentration (Cmax) in series [21] worked out at 879 ng/mL; in series [22], 19.8 µM; in [36], 1230 ng/mL. For the same compound, the AUC in series [23] amounted to 28.5 ng·h/mL; in series [33] it was 215 ng·h/mL. Besides, the Cmax normalised in series [24] was 0.126 (ug/ml)/(mg/kg); in [28], 14.24 (umol/L)/(mg/kg); in series [37] it was 2.92 (umol/L)/(mg/kg). Besides, the Tmax came to 2 h in series [25] and 2.7 h in series [30]. In addition, the AUC normalised in [26] is listed as 0.764 ((ug.h.ml-1)/(mg/kg); in series [34], 1.12 ((ug.h.ml-1)/(mg/kg). Also, the Change in hematology result in [27] is on record as “OUTCOME = Hematological parameter values did not differ from control values. No animals died during the study”. Moreover, the AUC(0-t) at 24 h in [29] turned out to be 857 ng·h/mL; in [31] it was 4140 ng·h/mL; in series [35], 5470 ng·h/mL. Besides, in [32], the “Plasma magnesium_CHANGE_BY” value was found to be 130%.
